From PMC4492107 (Science signaling, 2015) come the findings set out here.

For this test, the target named is T1, tcTERT (Tribolium castaneum TERT) (Tribolium castaneum, UniProt Q0QHL8).
T1 sequence (Q0QHL8 1-596): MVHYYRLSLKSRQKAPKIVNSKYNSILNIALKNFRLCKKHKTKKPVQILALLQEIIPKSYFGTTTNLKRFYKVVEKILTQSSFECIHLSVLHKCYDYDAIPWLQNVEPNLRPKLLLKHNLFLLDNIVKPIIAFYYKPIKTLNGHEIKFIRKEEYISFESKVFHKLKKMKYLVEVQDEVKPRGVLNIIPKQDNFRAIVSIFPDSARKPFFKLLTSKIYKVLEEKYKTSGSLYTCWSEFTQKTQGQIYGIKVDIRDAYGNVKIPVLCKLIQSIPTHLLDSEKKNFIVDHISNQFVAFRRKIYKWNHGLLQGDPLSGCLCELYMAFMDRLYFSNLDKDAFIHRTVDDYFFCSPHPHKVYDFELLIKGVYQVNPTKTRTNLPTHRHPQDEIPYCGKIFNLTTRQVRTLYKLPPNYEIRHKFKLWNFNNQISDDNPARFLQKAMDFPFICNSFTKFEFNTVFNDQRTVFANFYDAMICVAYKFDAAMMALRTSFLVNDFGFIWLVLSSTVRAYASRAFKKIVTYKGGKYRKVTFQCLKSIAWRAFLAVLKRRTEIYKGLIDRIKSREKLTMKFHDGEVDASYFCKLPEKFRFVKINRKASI
The test is described as follows: SPR with POPC:POPE:S1P. In kind it is binding.

Broadly, the Kd is the free concentration of one partner at which half of the binding sites on the other are occupied at equilibrium, for simple one-to-one binding. Consider `CCCCCCCCCCCCC/C=C/[C@@H](O)[C@@H](N)COP(=O)(O)O` [S1P, sphingosine 1-phosphate], for which the Kd was approximately 4.8 µM.
